Several values for one entry are separate records, joined by “and”; a condition that tells them apart may be missing. Identical values can stand only once. Results filed as inconclusive are left out. *1 amine or outer side, *2 acyl side, *3 side chain or, on linkers, in order; H or OH if unused. Where a SMILES comes first, the peptide text is derived from it. Bridges are numbered along the chain shown (N, C = ends). Roman numbers before positions name the chains, in order. [ ]: non-standard residue; d: D form. Actinocin(1to9) = Cc1c2oc3c(C)ccc(C(=O)[*:2])c3nc-2c(C(=O)[*:1])c(N)c1=O; NMeV = CN[CH](C(=O)O)C(C)C; Aze = O=C(O)[CH]1CCN1; Sar = CNCC(=O)O
Tested on: BDF1 mice, colon carcinoma 38 sc, T/C %
Experiment: NCI In Vivo Anticancer Drug Screen. Data for tumor model Colon Carcinoma 38 (subcutaneous) in B6D2F1 (BDF1) mice
Settings: endpoint: median tumor weight (est.), higher = larger tumour
Method: The antitumor activity of compounds was measured in mice bearing transplantable tumors. Survival or tumor size were measured and the results are expressed as the measurement made in the treated group (T) divided by the measurement made in the vehicle treated control group (C). The tumor model used in this assay is Colon Carcinoma 38 (subcutaneous) in B6D2F1 (BDF1) mice

[1] = dose: 12.5 mg/kg/injection, schedule: Q07DX002 (ip), vehicle: saline
[2] = dose: 200.0 mg/kg/injection, schedule: Q07DX002 (ip), vehicle: saline
[3] = dose: 25.0 mg/kg/injection, schedule: Q07DX002 (ip), vehicle: water
[4] = dose: 50.0 mg/kg/injection, schedule: Q07DX002 (ip), vehicle: water
[5] = dose: 50.0 mg/kg/injection, schedule: Q07DX002 (ip), vehicle: saline with Tween-80
[6] = dose: 100.0 mg/kg/injection, schedule: Q07DX002 (ip), vehicle: saline with Tween-80
[7] = dose: 200.0 mg/kg/injection, schedule: Q07DX002 (ip), vehicle: saline with Tween-80
[8] = dose: 400.0 mg/kg/injection, schedule: Q07DX002 (ip), vehicle: saline with Tween-80
[9] = dose: 100.0 mg/kg/injection, schedule: Q07DX002 (ip), vehicle: saline

CC[C@@]1(O)C[C@H](OC2CC(N(C)C)C(OC3CC(O)C(OC4CC(O)C(O)C(C)O4)C(C)O3)C(C)O2)c2c(cc3c(c2O)C(=O)c2c(O)ccc(O)c2C3=O)[C@H]1C(=O)OC (some centres not stated)
T/C (dose: 1.5 mg/kg/injection, schedule: Q07DX003 (ip), vehicle: Klucel (hydroxypropylcellulose) (HPC)): 95 % of control | T/C (dose: 3.0 mg/kg/injection, schedule: Q07DX003 (ip), vehicle: Klucel (hydroxypropylcellulose) (HPC)): 72 % of control

C[N+](C)(C)c1ncnc2c1ncn2C1CCCO1 (configuration not stated)
T/C [1]: 110 % of control | T/C (dose: 25.0 mg/kg/injection, schedule: Q07DX002 (ip), vehicle: saline): 84 % of control | T/C (dose: 50.0 mg/kg/injection, schedule: Q07DX002 (ip), vehicle: saline): 61 % of control and 77 % of control | T/C [2]: 65 % of control and 89 % of control

Oc1cc2c3c(c1)c1cc4c(cc1c[n+]3CC2)OCO4
T/C (dose: 3.12 mg/kg/injection, schedule: Q07DX002 (ip), vehicle: water): 102 % of control | T/C (dose: 6.25 mg/kg/injection, schedule: Q07DX002 (ip), vehicle: water): 77 % of control and 95 % of control | T/C [3]: 71 % of control | T/C [4]: 67 % of control and 71 % of control

c1cc(OCC2CO2)ccc1OCC1CO1 (configuration not stated)
T/C (dose: 25.0 mg/kg/injection, schedule: Q07DX002 (ip), vehicle: Klucel (hydroxypropylcellulose) (HPC)): 76 % of control | T/C (dose: 50.0 mg/kg/injection, schedule: Q07DX002 (ip), vehicle: Klucel (hydroxypropylcellulose) (HPC)): 96 % of control | T/C [5]: 113 % of control | T/C (dose: 100.0 mg/kg/injection, schedule: Q07DX002 (ip), vehicle: Klucel (hydroxypropylcellulose) (HPC)): 67 % of control | T/C [6]: 94 % of control | T/C (dose: 200.0 mg/kg/injection, schedule: Q07DX002 (ip), vehicle: Klucel (hydroxypropylcellulose) (HPC)): 63 % of control | T/C [7]: 82 % of control | T/C (dose: 400.0 mg/kg/injection, schedule: Q07DX002 (ip), vehicle: Klucel (hydroxypropylcellulose) (HPC)): 77 % of control | T/C [8]: 102 % of control | T/C (dose: 800.0 mg/kg/injection, schedule: Q07DX002 (ip), vehicle: saline with Tween-80): 77 % of control

CN(C)P(=O)(Oc1ccccc1)N(C)C
T/C [5]: 68 % of control | T/C [6]: 62 % of control | T/C [7]: 86 % of control

[Cl][Pt+2][Cl].[NH-]C1CCC1.[NH2-]
T/C (dose: 1.5 mg/kg/injection, schedule: Q07DX002 (ip), vehicle: saline): 95 % of control | T/C (dose: 3.0 mg/kg/injection, schedule: Q07DX002 (ip), vehicle: saline): 64 % of control | T/C (dose: 12.0 mg/kg/injection, schedule: Q07DX002 (ip), vehicle: saline): 43 % of control and 49 % of control | T/C (dose: 24.0 mg/kg/injection, schedule: Q07DX002 (ip), vehicle: saline): 13 % of control

Cc1c2oc3c(C)ccc(C(=O)NC4C(=O)NC(C(C)C)C(=O)N5CCCC5C(=O)N(C)CC(=O)N(C)C(C(C)C)C(=O)OC4C)c3nc-2c(C(=O)NC2C(=O)NC(C(C)C)C(=O)N3CCC3C(=O)N(C)CC(=O)N(C)C(C(C)C)C(=O)OC2C)c(N)c1=O (configuration not stated) (I: TV[Aze][Sar][NMeV] / II: TVP[Sar][NMeV]; ester I:1-I:C, II:1-II:C; linker I:N-II:N via Actinocin(1to9); configuration not given here)
T/C (dose: 25.0 micrograms/kg/injection, schedule: Q07DX002 (ip), vehicle: saline): 165 % of control | T/C (dose: 37.5 micrograms/kg/injection, schedule: Q07DX002 (ip), vehicle: saline + alcohol): 124 % of control | T/C (dose: 50.0 micrograms/kg/injection, schedule: Q07DX002 (ip), vehicle: saline): 80 % of control | T/C (dose: 200.0 micrograms/kg/injection, schedule: Q07DX002 (ip), vehicle: saline): 93 % of control | T/C (dose: 400.0 micrograms/kg/injection, schedule: Q07DX002 (ip), vehicle: saline): 51 % of control | T/C (dose: 600.0 micrograms/kg/injection, schedule: Q07DX002 (ip), vehicle: saline + alcohol): 48 % of control and 50 % of control and 73 % of control | T/C (dose: 800.0 micrograms/kg/injection, schedule: Q07DX002 (ip), vehicle: saline): 21 % of control

CCCCCCCCCCCCCC#CC(=O)O
T/C (dose: 6.25 mg/kg/injection, schedule: Q07DX002 (ip), vehicle: saline with Tween-80): 76 % of control | T/C (dose: 12.5 mg/kg/injection, schedule: Q07DX002 (ip), vehicle: saline with Tween-80): 92 % of control | T/C (dose: 25.0 mg/kg/injection, schedule: Q07DX002 (ip), vehicle: saline with Tween-80): 75 % of control | T/C [5]: 84 % of control

CO[C@H](C(=O)[C@@H](O)[C@@H](C)O)[C@@H]1Cc2cc3cc(OC4CC(OC5CC(O)C(O)C(C)O5)C(O)C(C)O4)c(C)c(O)c3c(O)c2C(=O)[C@H]1OC1CC(OC2CC(OC3CC(C)(O)C(O)C(C)O3)C(O)C(C)O2)C(O)C(C)O1 (some centres not stated)
T/C (dose: 0.06 mg/kg/injection, schedule: Q07DX002 (ip), vehicle: saline): 114 % of control | T/C (dose: 0.12 mg/kg/injection, schedule: Q07DX002 (ip), vehicle: saline): 99 % of control | T/C (dose: 0.25 mg/kg/injection, schedule: Q07DX002 (ip), vehicle: saline): 161 % of control | T/C (dose: 0.25 mg/kg/injection, schedule: Q07DX003 (ip), vehicle: saline): 75 % of control | T/C (dose: 0.5 mg/kg/injection, schedule: Q07DX003 (ip), vehicle: saline): 65 % of control | T/C (dose: 1.0 mg/kg/injection, schedule: Q07DX003 (ip), vehicle: saline): 49 % of control | T/C (dose: 2.0 mg/kg/injection, schedule: Q07DX003 (ip), vehicle: saline): 37 % of control

CC(C)NCC(O)COc1ccc(O)c(O)c1 (configuration not stated)
T/C [9]: 121 % of control | T/C [2]: 93 % of control

ClCC[Se](Cl)(Cl)c1ccccc1
T/C (dose: 1.56 mg/kg/injection, schedule: Q07DX002 (ip), vehicle: saline): 84 % of control | T/C (dose: 1.56 mg/kg/injection, schedule: Q07DX002 (ip), vehicle: suspension in saline): 83 % of control | T/C (dose: 3.12 mg/kg/injection, schedule: Q07DX002 (ip), vehicle: saline): 96 % of control | T/C (dose: 6.25 mg/kg/injection, schedule: Q07DX002 (ip), vehicle: saline): 105 % of control | T/C (dose: 6.25 mg/kg/injection, schedule: Q07DX002 (ip), vehicle: suspension in saline): 88 % of control | T/C [1]: 90 % of control

CCCCn1cnc2c(=S)nc[nH]c21
T/C [5]: 87 % of control and 96 % of control | T/C [8]: 17 % of control and 21 % of control

CNC(=O)O/N=C(\CN=[N+]=[N-])C(C)(C)C
T/C (dose: 1.0 mg/kg/injection, schedule: Q07DX002 (ip), vehicle: saline): 103 % of control

C=CC(=O)NCNC(=O)C=C
T/C [1]: 164 % of control | T/C [9]: 100 % of control | T/C [2]: 89 % of control and 97 % of control | T/C (dose: 400.0 mg/kg/injection, schedule: Q07DX002 (ip), vehicle: saline): 35 % of control

CNc1nc(N(C)C)nc(N(C)C)n1
T/C (dose: 3.12 mg/kg/injection, schedule: Q07DX003 (ip), vehicle: saline): 114 % of control | T/C (dose: 6.25 mg/kg/injection, schedule: Q07DX003 (ip), vehicle: saline): 95 % of control | T/C (dose: 6.25 mg/kg/injection, schedule: Q07DX003 (ip), vehicle: water): 89 % of control | T/C (dose: 12.5 mg/kg/injection, schedule: Q07DX003 (ip), vehicle: saline): 121 % of control | T/C (dose: 12.5 mg/kg/injection, schedule: Q07DX003 (ip), vehicle: water): 104 % of control | T/C (dose: 25.0 mg/kg/injection, schedule: Q07DX003 (ip), vehicle: saline): 121 % of control | T/C (dose: 25.0 mg/kg/injection, schedule: Q07DX003 (ip), vehicle: water): 61 % of control | T/C (dose: 50.0 mg/kg/injection, schedule: Q07DX003 (ip), vehicle: saline): 114 % of control | T/C (dose: 50.0 mg/kg/injection, schedule: Q07DX003 (ip), vehicle: water): 158 % of control | T/C (dose: 100.0 mg/kg/injection, schedule: Q07DX003 (ip), vehicle: water): 108 % of control | T/C (dose: 200.0 mg/kg/injection, schedule: Q07DX003 (ip), vehicle: saline): 32 % of control | T/C (dose: 200.0 mg/kg/injection, schedule: Q07DX003 (ip), vehicle: water): 22 % of control

Nc1nc2c(ncn2C2OC(CO)C(O)C2O)c(=O)[nH]1.Nc1nc2c(ncn2C2OC(CO)C(O)C2O)c(=O)[nH]1.[NH2-].[NH2-].[Pt+2] (configuration not stated)
T/C (dose: 12.5 mg/kg/injection, schedule: Q07DX002 (ip), vehicle: water): 30 % of control | T/C [3]: 108 % of control | T/C [4]: 96 % of control | T/C (dose: 100.0 mg/kg/injection, schedule: Q07DX002 (ip), vehicle: water): 248 % of control | T/C (dose: 200.0 mg/kg/injection, schedule: Q07DX002 (ip), vehicle: water): 117 % of control

From PubChem BioAssay AID212 (DTP/NCI, 2004)
